For experiment [1], the target named is T1, LdCYP5122A1 (Leishmania donovani, UniProt A0A3S7X0B6).
T1 sequence (A0A3S7X0B6 61-592): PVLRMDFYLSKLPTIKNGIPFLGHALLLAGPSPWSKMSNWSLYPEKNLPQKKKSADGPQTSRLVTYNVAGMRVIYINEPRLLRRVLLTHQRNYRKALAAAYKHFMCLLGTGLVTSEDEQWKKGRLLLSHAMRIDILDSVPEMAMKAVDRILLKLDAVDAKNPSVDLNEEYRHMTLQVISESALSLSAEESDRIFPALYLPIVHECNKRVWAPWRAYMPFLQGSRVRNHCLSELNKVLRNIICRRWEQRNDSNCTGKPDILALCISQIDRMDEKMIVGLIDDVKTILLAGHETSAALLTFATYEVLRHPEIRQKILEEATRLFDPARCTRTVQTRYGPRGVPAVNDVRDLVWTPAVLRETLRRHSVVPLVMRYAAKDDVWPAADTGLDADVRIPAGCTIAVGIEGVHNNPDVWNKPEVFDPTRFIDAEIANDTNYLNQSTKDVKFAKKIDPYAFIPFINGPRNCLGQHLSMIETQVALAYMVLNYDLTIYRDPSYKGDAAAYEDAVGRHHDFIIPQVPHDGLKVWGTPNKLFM
Kind of experiment: biochemical. As to conditions: for inhibition at 100 µM: read-out: % inhibition of CYP5122A1 at 100 μM.

Experiment [2] relates to L. donovani LV82 promastigotes. The experiment is described as follows: microbe, parasite or virus in culture. As to conditions: Leishmania donovani, 72 h, read-out: EC50 (L. donovani).
Experiment [3] relates to multiple strains of L. donovani and L. infantum promastigotes. As to conditions: 1 μg/mL; cited from earlier work.
The target in experiment [4] is T1, LdCYP5122A1.
The test system of experiment [5] is intracellular L. donovani parasites. The experiment is described as follows: Intracellular L. donovani in infected peritoneal macrophage assay. The class given is cell-based, Leishmania donovani. As to conditions: Supplementary Fig. 12.
Experiment [6] concerns L. donovani strain 1S2D promastigotes (Ld1S WT and CYP5122A1 mutants). As to conditions: 48 hours; for EC50: read-out: EC50, promastigote growth.
Experiment [7] has the same test system. Kind of experiment: microbe, parasite or virus in culture. As to conditions: Leishmania donovani, 48 h.
Experiment [8] relates to L. donovani LV82 promastigote cultures. Kind of experiment: Microscopic counts of LV82 promastigote cultures. The class given is cell-based, Leishmania donovani. As to conditions: LV82 promastigotes, cell counts daily for three days.
For a further experiment, the target named is L. donovani CYP51 (Leishmania donovani, UniProt A0A3S7WRS7). Kind of experiment: UV-Vis difference binding spectra of ligands with purified recombinant CYP51.
A further experiment addresses T2, L. donovani CYP5122A1 (Leishmania donovani, UniProt A0A3S7X0B6).
T2 sequence (A0A3S7X0B6 61-592): T1 sequence (A0A3S7X0B6 61-592)
Kind of experiment: UV-Vis difference binding spectra of ligands with purified recombinant CYP5122A1.

Experiment [9] addresses T3, LdCYP51 (Leishmania donovani, UniProt A0A3S7WRS7). Kind of experiment: biochemical.
The target in experiment [10] is T3, LdCYP51.
In experiment [11] the test system is intracellular amastigotes. As to conditions: ref Wang et al. (ref. 45); cited from earlier work.
Experiment [12] concerns sterol profile of LV82 promastigotes. Kind of experiment: LC-MS/MS sterol analysis of inhibitor-treated LV82 promastigotes. The class given is cell-based, Leishmania donovani. As to conditions: 50 μM voriconazole vs. DMSO, 24 hr.
The test system of experiment [13] is intracellular amastigotes of L. infantum. As to conditions: cited from earlier work; for EC50: read-out: EC50, elimination of intracellular amastigotes of L. infantum.
The test system of experiment [14] is intracellular L. major and L. amazonensis. As to conditions: 10 μM; cited from earlier work.

The text below walks through data of publication PMC11528044 (Nature Communications, 2024).

Where two headings read alike, the source gives them in different places. Marks after values point to notes of the source that are not given here.

Sequence of L. donovani CYP51 (A0A3S7WRS7 32-480): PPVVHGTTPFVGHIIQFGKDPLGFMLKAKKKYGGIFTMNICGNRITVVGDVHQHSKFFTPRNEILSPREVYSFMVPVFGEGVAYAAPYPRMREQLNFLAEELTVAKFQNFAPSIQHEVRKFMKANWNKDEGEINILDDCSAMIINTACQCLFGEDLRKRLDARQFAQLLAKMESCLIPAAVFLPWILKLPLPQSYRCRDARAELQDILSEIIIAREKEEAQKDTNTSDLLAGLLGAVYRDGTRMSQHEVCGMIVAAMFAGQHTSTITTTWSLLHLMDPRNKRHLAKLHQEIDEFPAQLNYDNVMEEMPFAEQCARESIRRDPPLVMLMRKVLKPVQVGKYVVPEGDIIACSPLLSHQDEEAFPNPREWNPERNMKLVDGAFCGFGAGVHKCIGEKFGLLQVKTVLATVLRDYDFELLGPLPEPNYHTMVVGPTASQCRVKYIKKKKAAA
T3 sequence (A0A3S7WRS7 32-480): as above

A word on the IC50: it is the concentration at which inhibition is half-maximal. Turning to `CC(=O)N1CCN(c2ccc(OCC3COC(Cn4ccnc4)(c4ccc(Cl)cc4Cl)O3)cc2)CC1` (centres unmarked) [Ketoconazole], the IC50 against LdCYP5122A1 [1] came to 420 ± 50 nM. In addition, the EC50 in experiment [2] was found to be 22000 ± 6000 nM. Moreover, the “Growth compared with control” value in experiment [3] is less than 20%. Moreover, the “SI (selectivity index) = IC50 against LdCYP5122A1/IC50 against LdCYP51” value (from here on “SI (selectivity index) = IC50”) on LdCYP5122A1 [4] is 8.7.
With `CC[C@@H]([C@H](C)O)n1ncn(-c2ccc(N3CCN(c4ccc(OC[C@@H]5CO[C@@](Cn6cncn6)(c6ccc(F)cc6F)C5)cc4)CC3)cc2)c1=O` [Posaconazole], the “Effect on intracellular L. donovani parasites” value in [5] was “more effective than fluconazole”. The “Concentration needed to inhibit growth further” value in [6] (Ld1S WT, bi-phasic response) is on record as “more than 12 μM”. Also, the EC50 in experiment [7] (read-out: Concentration sufficient to reach EC50) is 100 nM; in experiment [7] (read-out: EC50, promastigote growth), approximately 25000 nM. The “Leishmanicidal vs. leishmanistatic effect” value in [8] was “leishmanistatic effect”. Further, the “Binding mode with CYP51 (difference binding spectrum)” value on L. donovani CYP51 is given as “type II binding”. The “Binding mode with CYP5122A1 (difference binding spectrum)” value at L. donovani CYP5122A1 is listed as “type II-like binding”.
Regarding `CCC(C)n1ncn(-c2ccc(N3CCN(c4ccc(OCC5COC(Cn6cncn6)(c6ccc(Cl)cc6Cl)O5)cc4)CC3)cc2)c1=O` (centres unmarked) [Itraconazole], the values for the IC50 against LdCYP5122A1 [1] and on LdCYP51 [9] were 2100 ± 400 nM and 49 ± 9 nM, respectively. Also, in [2], the EC50 is 6000 ± 1100 nM. In addition, in experiment [3], the “Growth compared with control” value is on record as less than 20%. Further, the “SI (selectivity index) = IC50” value on LdCYP5122A1 [4] was 43.
For the compound `CC(C)Oc1cc(NC(=N)c2ccccn2)ccc1-c1ccc(-c2ccc(NC(=N)c3ccccn3)cc2OC(C)C)o1` [DB766], the “% inhibition of LdCYP51 at 30 μM” value at LdCYP51 [10] (30 μM) is given as less than 30% inhibition at 30 μM. The “IC50 vs. intracellular amastigotes (printed in column EC50 (L. donovani))” value (from here on “IC50 vs. intracellular amastigotes”) in experiment [11] was 0.036^f μM. Also, the EC50 in [6] (CYP5122A1 overexpressors) is approximately 12 nM; in experiment [6] (WT and Ld22A1 + /‒) it was 1 to 4 nM. Also, on LdCYP5122A1 [4], the “Selectivity for CYP5122A1 over CYP51” value is given as more than 30 fold. Further, the IC50 at LdCYP5122A1 [4] (read-out: IC50 (LdCYP5122A1), mean ± standard deviation (n = 3)) is 1000 ± 100 nM.
One may read the inhibition as how much of the control response was suppressed. As for `C[C@@H](c1ncncc1F)[C@](O)(Cn1cncn1)c1ccc(F)cc1F` [Voriconazole], on LdCYP5122A1 [1], the IC50 is more than 100000 nM and the inhibition at 100 µM was less than 28%. Besides, the “Selectivity for CYP51 over CYP5122A1” value at LdCYP51 [10] is on record as more than 1176 fold. For the same compound, the EC50 in [2] was more than 100000 nM. Also, at LdCYP5122A1 [4], the “SI (selectivity index) = IC50” value is recorded as more than 1176. In addition, in [12], the “4,14-Dimethylzymosterol level normalized to DMSO-treated parasites” value is reported as 17 ± 2, the “4CH2OH-LS level normalized to DMSO-treated parasites” value is 0.83 ± 0.09, the “5-Dehydroepisterol level normalized to DMSO-treated parasites” value turned out to be 0.078 ± 0.043 and the “7-Dehydrodesmosterol level normalized to DMSO-treated parasites” value is on record as 0^d,**. In addition, in [12], the “14-Methylfecosterol level normalized to DMSO-treated parasites” value was “Accumulated^a,***”, the “14-Methylzymosterol level normalized to DMSO-treated parasites” value worked out at 8.0 ± 1.0, the “Cholesterol (exogenous) level normalized to DMSO-treated parasites” value turned out to be 0.88 ± 0.07 and the “Ergosta-5,7-dienol level normalized to DMSO-treated parasites” value turned out to be 0.39 ± 0.11. In addition, in experiment [12], the “Ergostatetraenol level normalized to DMSO-treated parasites” value was 0.086 ± 0.027, the “Ergosterol level normalized to DMSO-treated parasites” value is 0.30 ± 0.08, the “FF-MAS level normalized to DMSO-treated parasites” value is “Not detected” and the “Lanosterol level normalized to DMSO-treated parasites” value is reported as 1.6 ± 0.2. Moreover, the “T-MAS level normalized to DMSO-treated parasites” value in [12] is on record as “Not detected”. In addition, in [12] (not separated from cholesta-7,24-dienol), the “Zymosterol level normalized to DMSO-treated parasites” value turned out to be 0.067 ± 0.034. The “4-Methylzymosterol level normalized to DMSO-treated parasites” value in experiment [12] (not separated from episterol and fecosterol) came out at 0.18 ± 0.06. In addition, the “EC50, elimination of intracellular amastigotes of L. infantum” value in [13] is recorded as “failed”. Besides, on L. donovani CYP51, the “Binding mode with CYP51 (difference binding spectrum)” value was “type II binding”. The same compound gave an IC50 on LdCYP51 [9] of 85 ± 17 nM. For the same compound, the “Binding mode with CYP5122A1 (difference binding spectrum)” value on L. donovani CYP5122A1 is recorded as “no specific responses”. The “Inhibition of intracellular parasites” value in experiment [14] is less than 50%.
In the case of `OC(Cn1cncn1)(Cn1cncn1)c1ccc(F)cc1F` [Fluconazole], at LdCYP5122A1 [1], the IC50 was more than 100000 nM and the inhibition at 100 µM was less than 20%. In [3], the “Growth compared with control” value was more than 80%. In addition, the “Binding mode with CYP51 (difference binding spectrum)” value on L. donovani CYP51 is “type II binding”. Further, the “Binding mode with CYP5122A1 (difference binding spectrum)” value at L. donovani CYP5122A1 is given as “no specific responses”. The “Inhibition of intracellular parasites” value in experiment [14] is recorded as less than 50%.
Take `Clc1ccc(C(Cn2ccnc2)OCc2ccsc2Cl)c(Cl)c1` (centres unmarked) [Tioconazole]: the concentration for half-maximal inhibition (IC50) at LdCYP5122A1 [1] is 1100 ± 200 nM; against LdCYP51 [9], 54 ± 8 nM. For the same compound, the EC50 in [2] was 9500 ± 600 nM; in experiment [13] it was 4000 ± 200 nM. Further, on LdCYP5122A1 [4], the “SI (selectivity index) = IC50” value is on record as 20.
For `CCCCCCCCCCCCCCCCOP(=O)([O-])OCC[N+](C)(C)C` [Miltefosine], the IC50 against LdCYP5122A1 [1] was 43000 ± 1000 nM; at LdCYP51 [9] it was 12000 ± 1000 nM. Besides, the “IC50 vs. intracellular amastigotes” value in [11] was 2.7^e μM. At LdCYP5122A1 [4], the “SI (selectivity index) = IC50” value was determined as 3.5.
Take `Clc1ccc(C(Cn2ccnc2)OCc2ccc(Sc3ccccc3)cc2)c(Cl)c1` (centres unmarked) [Fenticonazole]: the IC50 on LdCYP5122A1 [1] came to 650 ± 80 nM; on LdCYP51 [9], 81 ± 2 nM. The EC50 in [2] was 5600 ± 300 nM; in experiment [13], 2900 ± 300 nM. For the same compound, the “SI (selectivity index) = IC50” value on LdCYP5122A1 [4] worked out at 8.0.
On to `NC[C@@H]1O[C@H](O[C@H]2[C@@H](O)[C@H](O[C@@H]3[C@@H](O)[C@H](N)C[C@H](N)[C@H]3O[C@H]3O[C@H](CO)[C@@H](O)[C@H](O)[C@H]3N)O[C@@H]2CO)[C@H](N)[C@@H](O)[C@@H]1O` [Paromomycin], for which the “IC50 vs. intracellular amastigotes” value in experiment [11] is >50^e μM.
